#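 Dose response: 5 concentrations. Exposure: 48 h. Format: 96-well plates. Endpoint: linear interpolation; highest concentration if not reached. GI50: concentration for 50% inhibition of growth. TGI is the concentration that stops growth completely.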
# Columns and labels:
# Test in all cases: NCI tumour cell line growth inhibition, 48 h
# 786-0 renal = tested on: 786-0 renal
# A498 renal = tested on: A498 renal
# ACHN renal = tested on: ACHN renal
# BT-549 breast = tested on: BT-549 breast
# CAKI-1 renal = tested on: CAKI-1 renal
# CCRF-CEM leukemia = tested on: CCRF-CEM leukemia
# COLO 205 colon = tested on: COLO 205 colon
# DU-145 prostate = tested on: DU-145 prostate
# EKVX NSCLC = tested on: EKVX NSCLC
# HCC-2998 colon = tested on: HCC-2998 colon
# HCT-116 colon = tested on: HCT-116 colon
# HCT-15 colon = tested on: HCT-15 colon
# HL-60(TB) leukemia = tested on: HL-60(TB) leukemia
# HOP-62 NSCLC = tested on: HOP-62 NSCLC
# HOP-92 NSCLC = tested on: HOP-92 NSCLC
# HT29 colon = tested on: HT29 colon
# IGROV1 ovarian = tested on: IGROV1 ovarian
# KM12 colon = tested on: KM12 colon
# LOX IMVI melanoma = tested on: LOX IMVI melanoma
# M14 melanoma = tested on: M14 melanoma
# MCF7 breast = tested on: MCF7 breast
# MDA-MB-231 breast = tested on: MDA-MB-231 breast
# MDA-MB-435 = tested on: MDA-MB-435
# MOLT-4 leukemia = tested on: MOLT-4 leukemia
# NCI-H226 lung = tested on: NCI-H226 lung
# NCI-H23 lung = tested on: NCI-H23 lung
# NCI-H460 lung = tested on: NCI-H460 lung
# NCI-H522 lung = tested on: NCI-H522 lung
# NCI/ADR-RES ovarian = tested on: NCI/ADR-RES ovarian
# OVCAR-3 ovarian = tested on: OVCAR-3 ovarian
# OVCAR-4 ovarian = tested on: OVCAR-4 ovarian
# OVCAR-5 ovarian = tested on: OVCAR-5 ovarian
# OVCAR-8 ovarian = tested on: OVCAR-8 ovarian
# PC-3 prostate = tested on: PC-3 prostate
# RPMI-8226 leukemia = tested on: RPMI-8226 leukemia
# SF-268 CNS = tested on: SF-268 CNS
# SF-295 CNS = tested on: SF-295 CNS
# SF-539 CNS = tested on: SF-539 CNS
# SK-MEL-2 melanoma = tested on: SK-MEL-2 melanoma
# SK-MEL-28 melanoma = tested on: SK-MEL-28 melanoma
# SK-MEL-5 melanoma = tested on: SK-MEL-5 melanoma
# SK-OV-3 ovarian = tested on: SK-OV-3 ovarian
# SN12C renal = tested on: SN12C renal
# SNB-19 CNS = tested on: SNB-19 CNS
# SNB-75 CNS = tested on: SNB-75 CNS
# SR leukemia = tested on: SR leukemia
# SW-620 colon = tested on: SW-620 colon
# TK-10 renal = tested on: TK-10 renal
# U251 CNS = tested on: U251 CNS
# UACC-257 melanoma = tested on: UACC-257 melanoma
smiles,measurement,setting,value
COc1ccc2c(c1)C(=O)c1c-2n(CCCNCCO)c(=O)c2cc([N+](=O)[O-])ccc12,GI50,786-0 renal,< 10 nM
same,TGI,786-0 renal,< 10 nM
same,GI50,A498 renal,< 15 nM
same,TGI,A498 renal,< 48.2 nM
same,GI50,ACHN renal,< 10 nM
same,TGI,ACHN renal,< 34 nM
same,GI50,BT-549 breast,22.6 nM
same,TGI,BT-549 breast,1210 nM
same,GI50,CAKI-1 renal,< 10 nM
same,TGI,CAKI-1 renal,60.2 nM
same,GI50,CCRF-CEM leukemia,< 10 nM
same,TGI,CCRF-CEM leukemia,< 10 nM
same,GI50,COLO 205 colon,18 nM
same,TGI,COLO 205 colon,2010 nM
same,GI50,DU-145 prostate,< 10 nM
same,GI50,EKVX NSCLC,73.3 nM
same,TGI,EKVX NSCLC,4770 nM
same,GI50,HCC-2998 colon,< 23.2 nM
same,TGI,HCC-2998 colon,557 nM
same,GI50,HCT-116 colon,< 10 nM
same,TGI,HCT-116 colon,192 nM
same,GI50,HCT-15 colon,< 21.1 nM
same,TGI,HCT-15 colon,1190 nM
same,GI50,HL-60(TB) leukemia,< 10 nM
same,TGI,HL-60(TB) leukemia,122 nM
same,GI50,HOP-62 NSCLC,< 10 nM
same,TGI,HOP-62 NSCLC,145 nM
same,GI50,HOP-92 NSCLC,< 10.8 nM
same,TGI,HOP-92 NSCLC,149 nM
same,GI50,HT29 colon,< 10 nM
same,TGI,HT29 colon,1090 nM
same,GI50,IGROV1 ovarian,28.3 nM
same,TGI,IGROV1 ovarian,1810 nM
same,GI50,KM12 colon,25.5 nM
same,TGI,KM12 colon,739 nM
same,GI50,LOX IMVI melanoma,< 10 nM
same,TGI,LOX IMVI melanoma,90.5 nM
same,GI50,M14 melanoma,< 10 nM
same,TGI,M14 melanoma,117 nM
same,GI50,MCF7 breast,< 10 nM
same,TGI,MCF7 breast,26.4 nM
same,GI50,MDA-MB-231 breast,594 nM
same,TGI,MDA-MB-231 breast,2340 nM
same,GI50,MDA-MB-435,< 10 nM
same,TGI,MDA-MB-435,1060 nM
same,GI50,MOLT-4 leukemia,< 10 nM
same,TGI,MOLT-4 leukemia,< 10 nM
same,GI50,NCI-H226 lung,47.7 nM
same,TGI,NCI-H226 lung,970 nM
same,GI50,NCI-H23 lung,< 10 nM
same,TGI,NCI-H23 lung,34.1 nM
same,GI50,NCI-H460 lung,< 10 nM
same,TGI,NCI-H460 lung,14.8 nM
same,GI50,NCI-H522 lung,< 10 nM
same,TGI,NCI-H522 lung,2820 nM
same,GI50,NCI/ADR-RES ovarian,< 10 nM
same,TGI,NCI/ADR-RES ovarian,1680 nM
same,GI50,OVCAR-3 ovarian,17.1 nM
same,TGI,OVCAR-3 ovarian,586 nM
same,GI50,OVCAR-4 ovarian,36.1 nM
same,TGI,OVCAR-4 ovarian,1190 nM
same,GI50,OVCAR-5 ovarian,< 12.8 nM
same,TGI,OVCAR-5 ovarian,239 nM
same,GI50,OVCAR-8 ovarian,< 10 nM
same,TGI,OVCAR-8 ovarian,1340 nM
same,GI50,PC-3 prostate,< 13.7 nM
same,TGI,PC-3 prostate,1330 nM
same,GI50,RPMI-8226 leukemia,< 10 nM
same,TGI,RPMI-8226 leukemia,46.9 nM
same,GI50,SF-268 CNS,< 10 nM
same,TGI,SF-268 CNS,378 nM
same,GI50,SF-295 CNS,< 10 nM
same,TGI,SF-295 CNS,11.5 nM
same,GI50,SF-539 CNS,< 10 nM
same,TGI,SF-539 CNS,< 10 nM
same,GI50,SK-MEL-2 melanoma,427 nM
same,TGI,SK-MEL-2 melanoma,2300 nM
same,GI50,SK-MEL-28 melanoma,12.4 nM
same,TGI,SK-MEL-28 melanoma,1500 nM
same,GI50,SK-MEL-5 melanoma,< 10 nM
same,TGI,SK-MEL-5 melanoma,< 25.1 nM
same,GI50,SK-OV-3 ovarian,< 10 nM
same,TGI,SK-OV-3 ovarian,1690 nM
same,GI50,SN12C renal,< 10 nM
same,TGI,SN12C renal,4150 nM
same,GI50,SNB-19 CNS,< 10 nM
same,TGI,SNB-19 CNS,19900 nM
same,GI50,SNB-75 CNS,< 10 nM
same,TGI,SNB-75 CNS,172 nM
same,GI50,SR leukemia,< 10 nM
same,TGI,SR leukemia,< 10 nM
same,GI50,SW-620 colon,< 10 nM
same,TGI,SW-620 colon,1140 nM
same,GI50,TK-10 renal,280 nM
same,TGI,TK-10 renal,11800 nM
same,GI50,U251 CNS,< 10 nM
same,TGI,U251 CNS,1030 nM
same,GI50,UACC-257 melanoma,69.1 nM
same,TGI,UACC-257 melanoma,1960 nM

# — PubChem BioAssay (NCI)
